The test system of assay [1] is high sucrose diet-fed hamster. The experiment in a line: Effectiveness in high sucrose diet-fed hamster (plasma lipid change rate). The assay is classed as in vivo, Syrian hamsters. As to conditions: for Change rate Non-HDL Cho / Change rate TG / Change rate Total Cho: 14th day, versus control group. The procedure: Pharmacological action of EPA-E and/or tocopherol nicotinate on plasma lipids was confirmed by using hamsters that had been fed high sucrose diet. 6 week old male Syrian hamsters (Japan SLC, Inc.) were allowed to freely take fish meal-less F-1 diet (F-1, Funabashi Farm) under 12 hour light-dark cycles at 23°C for 2 weeks, and then, high sucrose diet (D11511, Research Diet Inc.) for 2 weeks. 6 groups (each comprising 6 animals), namely, control group, EPA-E 300 group, EPA-E 1000 group, tocopherol nicotinate 1000 group (hereinafter referred to as TN1000 group), low dose combination group, and high dose combination group were set. During the feeding of the high sucrose diet, the EPA-E 300 group was administered with 300 mg/kg of EPA-E (Mochida Pharmaceutical Co.); the EPA-E 1000 group was administered with 1000 mg/kg of EPA-E; the TN1000 group was administered with 1000 mg/kg of tocopherol nicotinate (Wako Pure Chemical Industries, Ltd.); the low dose combination group was administered with 300 mg/kg of EPA-E and 1000 mg/kg of tocopherol nicotinate; and the high dose combination group was administered with 1000 mg/kg of EPA-E and 1000 mg/kg of tocopherol nicotinate after suspending in 5% aqueous solution of gum arabic. The control group was orally administered with 5% aqueous solution of gum arabic once a day. Blood was collected one day before the start of the administration and on the 14th day of the administration, and plasma was separated by centrifugation. Plasma TG, total Cho, and HDL Cho concentration were respectively measured using a biochemical analyzer (A0400, Olympus Corporation) and commercially available assay reagent (Wako Pure Chemical Industries, Ltd.). The nan-HDL Cho concentration (total Cho-HDL Cho) was also calculated. No statistically significant difference was found in the plasma lipid concentrations of various groups on the day before the start of the administration. The plasma TG, total Cho, and non-HDL Cho concentration of each group at 14th day of the drug administration was compared with the corresponding values of the control group, and change rate was calculated by the following equation: Change rate (%) = [{(lipid concentration of each group)-(lipid concentration of control group)}x100]/(lipid concentration of the control group) [formula] For the combination group, sum of the change rate of the EPA-E sole administration group and the change rate of the tocopherol nicotinate sole administration group is shown in Table 1 as the theoretical change rate of the combination group. When the change rate of the actual measurement was negative and the value was lower than the theoretical value, synergistic effect by the combined use in the lipid decrease was deemed to have been realized.

Assay [2] relates to Cho diet rabbit. Put plainly: Effectiveness in Cho diet rabbit (plasma lipids, auricle skin temperature, platelet collagen aggregation). The class given is in vivo, Japan white male rabbits. As to conditions: HCD diet 12 weeks; EPA-E 1000 mg/kg or tocopherol nicotinate 300 mg/kg orally once a day; compared to control group. The text has this:
Pharmacological action of EPA-E and/or tocopherol nicotinate on plasma lipids, auricle skin temperature, and platelet aggregation is confirmed by using rabbits that have been fed with Cho diet (hereinafter referred to as "HCD diet") known to develop a dyslipidemia. Japan white male rabbits (Funabashi Farm) having a body weight of 2.7 to 3.3 kg are allowed to freely take 100 g/day of normal diet (F-1, Funabashi Farm) or HCD diet (RC-4 supplemented with 1% Cho, Oriental Yeast Co.,Ltd.) for 12 weeks under 12 hour light-dark cycles at 23°C. 5 groups (each comprising 10 animals), namely, normal group (normal diet feeding); control group (HCD diet feeding); EPA-E group (HCD diet feeding + EPA-E administration); tocopherol nicotinate group (HCD diet feeding + tocopherol nicotinate administration); and combination group (HCD diet feeding + EPA-E administration + tocopherol nicotinate administration) are set. During the feeding, the EPA-E group is administered with 1000 mg/kg of EPA-E; the tocopherol nicotinate group is administered with 300 mg/kg of tocopherol nicotinate; and the combination group is administered with 1000 mg/kg of EPA-E and […] of tocopherol nicotinate after suspending in 5% aqueous solution of gum arabic. The administration is conducted orally once a day. The normal group and the control group are orally administered with 5% aqueous solution of gum arabic once a day. At the start of the administration and after 12 weeks of feeding, auricle skin temperature is measured by thermography and blood is collected for plasma biochemical tests. Platelet collagen aggregation is also checked after 12 weeks of feeding by measuring absorbance.

Assay [3] deals with lauric acid-induced peripheral arterial occlusive hypertriglyceridemia rat. Put plainly: Effectiveness in lauric acid-induced peripheral arterial occlusive hypertriglyceridemia rat (lesion score). As to conditions: 2 weeks after the surgery; EPA-E 300 mg/kg or tocopherol nicotinate 100 mg/kg orally once a day; compared to control group. The class given is in vivo, Wister rats. The procedure:
4 week old male Wister rats (Japan SLC, Inc.) are allowed to freely take high sucrose diet (AIN-76A, PURINA MILLS) for 4 weeks under 12 hour light-dark cycles at 23°C. 5 groups (each comprising 10 animals), namely, sham surgery group; control group, EPA-E group (EPA-E administration); tocopherol nicotinate group (tocopherol nicotinate administration); and combination group (EPA-E administration + tocopherol nicotinate administration) are set. During the feeding, the EPA-E group is administered with 300 mg/kg of EPA-E; the tocopherol nicotinate group is administered with 100 mg/kg of tocopherol nicotinate; and the combination group is administered with 300 mg/kg of EPA-E and 100 mg/kg of tocopherol nicotinate after suspending in 5% aqueous solution of gum arabic. The administration is conducted orally once a day. […] Progress of the lesion of the limbs on the peripheral side of the injection site is scored for wet gangrene and dry gangrene, and the lesion is visually inspected with naked eyes every day until 2 weeks after the surgery. Progress of the lesion is scored by the following criteria: • Score 0: no change, score 1: the lesion is limited to nail, score 2: the lesion is limited to finger, score 3: the lesion is expanded to footpad, and score 4: the lesion is expanded to lower limb.

The test system of assay [4] is hypertriglyceridemia rat. Put plainly: Effectiveness in hypertriglyceridemia rat. As to conditions: 4 weeks; EPA-E 300 mg/kg or tocopherol nicotinate 100 mg/kg orally once a day as emulsion; compared to control group. The assay is classed as in vivo, Zucker Diabetic Fatty rat. The procedure: 6 week old male Zucker Diabetic Fatty rat (Charles River Japan) are allowed to freely take diabetes-inducing diet (Purina 5008 (crude protein content, 23.5%; crude lipid content, 6.5%)) under 12 hour light-dark cycles at 23°C. 4 groups (each comprising 10 animals), namely, control group; EPA-E group (EPA-E administration); tocopherol nicotinate group (tocopherol nicotinate administration); and combination group (EPA-E administration + tocopherol nicotinate administration) are set. During the feeding, the EPA-E group is administered with 300 mg/kg of EPA-E; the tocopherol nicotinate group is administered with 100 mg/kg of tocopherol nicotinate; and the combination group is administered with 300 mg/kg of EPA-E and 100 mg/kg of tocopherol nicotinate. The administration is conducted orally once a day. The drugs are administered by preparing an emulsion preparation according to Preparation Example 8. The control group is orally administered with base of the emulsion preparation of Preparation Example 8 once a day. At the start of the administration and after 4 weeks of feeding, auricle skin temperature is measured by thermography and blood is collected for plasma biochemical test.

The source of these data is patent EP2308493A1, “AMELIORATING OR THERAPEUTIC AGENT FOR DYSLIPIDEMIA” (Mochida Pharmaceutical Co., Ltd., priority 2008, dated 2010).

For `CC/C=C\C/C=C\C/C=C\C/C=C\C/C=C\CCCC(=O)OCC` [EPA-E, Ethyl icosapentaenoate], in assay [1] (300 mg/kg orally), the “Change rate Non-HDL Cho” value was 14.8%, the “Change rate TG” value was found to be 2.7% and the “Change rate Total Cho” value was 11.1%. In addition, in assay [1] (1000 mg/kg orally), the “Change rate Non-HDL Cho” value came out at 11.1%, the “Change rate TG” value was 19.6% and the “Change rate Total Cho” value is listed as 2.7%.
For `Cc1c(C)c2c(c(C)c1OC(=O)c1cccnc1)CCC(C)(CCCC(C)CCCC(C)CCCC(C)C)O2` (centres unmarked) [tocopherol nicotinate], in assay [2], the “decrease of the auricle skin temperature” value is reported as “also suppressed”, the “enhancement of the platelet collagen aggregation” value is recorded as “also suppressed”, the “plasma TG concentration” value is “suppressed increase” and the “plasma total Cho concentration” value is “suppressed increase”. Also, in assay [1] (1000 mg/kg orally), the “Change rate Non-HDL Cho” value is given as -11.6%, the “Change rate TG” value is recorded as -23.3% and the “Change rate Total Cho” value is reported as -3.7%. The “lipid reducing action (plasma TG, total Cho, non-HDL Cho)” value in assay [1] (high sucrose diet, 14 days oral administration) is “the action of reducing the TG and non-HDL Cho was found”. Further, in assay [3], the “score of progress of the lesion (wet and dry gangrene, 0-4)” value is “improved scores”. Moreover, in assay [4], the “plasma TG concentration” value is reported as “suppressed increase” and the “plasma free fatty acid concentration” value was “suppressed increase”.
